From patent US20110039885A1, “METHODS FOR INCREASING ENDOTHELIAL PROGENITOR CELLS” (FibroGen, Inc., priority 2007, published 2011)

Legend:
Format in all cases: in vivo, mouse
[1] = tested on: colony-forming unit-endothelial cells (CFU-EC) from blood; experiment: EPC colony forming assay (CFU-EC) ex vivo, blood of dosed mice; conditions: for Blood CFU-EC: blood 6 h after final dose, 12 days culture; for Blood CFU-EC Fold Increase Over Control: vs vehicle control
Method: To examine the effect of compounds and methods of the present invention on increasing EPCs, wherein the EPCs are functional EPCs, i.e., EPCs that are able to differentiate into mature endothelial cells, the following studies were performed in which the frequency of endothelial colony-forming cells was evaluated ex vivo. In one series of experiments, male Swiss-Webster mice were administered various compounds of the present invention via oral gavage using a ball-tipped gavage needle. Animals treated by oral gavage received a 10 ml/kg volume of either 0.5% carboxymethyl cellulose (CMC) with 0.1% Polysorbate 80 (vehicle control) or various doses (10-100 mg/kg) of a compound of the present invention in 0.5% CMC with 0.1% Polysorbate 80. Animals were dosed once daily for 3 or 4 days. Six hours after the final dosing, 200 μl blood samples were collected for analysis of EPC function and differentiation using an EPC colony forming assay. EPC colony forming assays were carried out as previously described. (Murphy et al. (2007) Arterioscler Thromb Vasc Biol 27:936-942.) Briefly, mononuclear cells were isolated from whole blood samples by erythrocyte depletion using red blood cell lysis buffer (eBioscience) according to the manufacturer's instructions. The remaining cells (50,000 cells/well) were plated on fibronectin coated 24-well dishes (BD, BioSciences Discovery Labware) and incubated in endothelial growth media (EGM-2 media, Cambrex) for 12 days. At the end the incubation period, EPC colonies were counted.

[2] = tested on: endothelial progenitor cells (EPCs), KDR+/CD34+ cells, in bone marrow; experiment: Bone marrow EPC levels by FACS after oral dosing in mice; conditions: for Percent Bone Marrow EPCs: tibia bone marrow 6 h after final dose; for Percent Bone Marrow EPCs Fold Increase Over Control: vs vehicle control
Method: (§1) To examine the effect of compounds and methods of the present invention on endothelial progenitor cell (EPC) mobilization and EPC levels, the following studies were performed. Male Swiss-Webster mice were administered various compounds of the present invention via oral gavage using a ball-tipped gavage needle. Animals treated by oral gavage received a 10 ml/kg volume of either 0.5% carboxymethyl cellulose (CMC) with 0.1% Polysorbate 80 (vehicle control) or various doses (10-100 mg/kg) of a compound of the present invention in 0.5% CMC with 0.1% Polysorbate 80. Animals were dosed once daily for 3 or 4 days. Six hours after the final dosing, 200 μl blood samples were collected for detection of EPCs by FACS analysis as previously described. (Vasa et al. (2001) Circ Res 89:e1-e7.) Briefly, mononuclear cells were isolated from whole blood samples by erythrocyte depletion using red blood cell lysis buffer (eBioscience) according to the manufacturer's instructions. The remaining cells were incubated for one hour with monoclonal antibodies directed against mouse CD34 and mouse KDR, cell surface markers for EPCs (BD Pharmingen). Following incubation with the anti-CD34 and anti-KDR monoclonal antibodies, the samples were washed three times with sort buffer (PBS, 1% fetal bovine serum) and resuspended in sort buffer containing 50 μg/ml of propidium iodide. Samples were then analyzed for the presence and quantitation of EPCs by flow cytometry (FACS Calibur, Becton Dickinson). The cytometer was set to acquire 10 000 events. Two or three samples obtained from each animal were analyzed and the average recorded. EPCs were determined as double positive KDR+/CD34+ cells.
To examine the effect of compounds and methods of the present invention on EPC levels in bone marrow, the following studies were performed. Male Swiss-Webster mice were administered various compounds of the present invention via oral gavage using a ball-tipped gavage needle. Animals treated by oral gavage received a 10 ml/kg volume of either 0.5% carboxymethyl cellulose (CMC) with 0.1% Polysorbate 80 (vehicle control) or various doses (10-100 mg/kg) of a compound of the present invention in 0.5% CMC with 0.1% Polysorbate 80. Animals were dosed once daily for 3 or 4 days. Six hours after the final dosing, bone marrow samples were taken from one tibia of each animal and suspended in buffer (PBS with 1% fetal bovine serum). Bone marrow suspensions were then filtered through nylon filters to remove stromal cells. Following filtration, the remaining cells were counted manually using a hemocytometer. Detection and quantitation of EPCs was performed by FACS analysis as described above in Example 1.

[3] = tested on: colony-forming unit-endothelial cells (CFU-EC) from bone marrow; experiment: EPC colony forming assay (CFU-EC) ex vivo, bone marrow of dosed mice; conditions: for Bone Marrow CFU-EC: tibia bone marrow 6 h after final dose, 12 days culture; for Bone Marrow CFU-EC Fold Increase Over Control: vs vehicle control
Method: EPC colony forming assays were carried out as previously described. (Murphy et al. (2007) Arterioscler Thromb Vasc Biol 27:936-942.) Briefly, mononuclear cells were isolated from whole blood samples by erythrocyte depletion using red blood cell lysis buffer (eBioscience) according to the manufacturer's instructions. The remaining cells (50,000 cells/well) were plated on fibronectin coated 24-well dishes (BD, BioSciences Discovery Labware) and incubated in endothelial growth media (EGM-2 media, Cambrex) for 12 days. At the end the incubation period, EPC colonies were counted. In another series of experiments, male Swiss-Webster mice were administered various compounds of the present invention via oral gavage using a ball-tipped gavage needle. Animals treated by oral gavage received a 10 ml/kg volume of either 0.5% carboxymethyl cellulose (CMC) with 0.1% Polysorbate 80 (vehicle control) or various doses (10-100 mg/kg) of a compound of the present invention in 0.5% CMC with 0.1% Polysorbate 80. Animals were dosed once daily for 3 or 4 days. Six hours after the final dosing, bone marrow samples were taken from one tibia of each animal. Bone marrow samples were then analyzed for EPC function and differentiation using an EPC colony forming assay as described above.

[4] = tested on: endothelial progenitor cells (EPCs), double positive KDR+/CD34+ cells, in blood; experiment: Blood EPC levels by FACS after oral dosing in mice; conditions: for Blood EPCs / Percent Blood EPCs: blood 6 h after final dose; for Blood EPCs Fold Increase Over Control / Percent Blood EPCs Fold Increase Over Control: vs vehicle control
Method: as §1

[5] = 60 mg/kg oral gavage once daily, 3 days
[6] = 100 mg/kg oral gavage once daily, 4 days
[7] = 20 mg/kg oral gavage once daily, 3 days
[8] = 20 mg/kg oral gavage once daily, 4 days
[9] = 60 mg/kg oral gavage once daily, 4 days

COc1ccc(Oc2ccc3c(O)c(C(=O)NCC(=O)O)ncc3c2)cc1 [Compound A, {[4-Hydroxy-7-(4-methoxy-phenoxy)-isoquinoline-3-carbonyl]-amino}-acetic acid]
Blood CFU-EC [1, 5]: 16.8 colonies/50,000 cells | Blood CFU-EC Fold Increase Over Control ([1]; 60 mg/kg oral, 3 days): 8.4 fold | Blood CFU-EC [1, 6]: 17.8 colonies/50,000 cells | Blood CFU-EC Fold Increase Over Control ([1]; 100 mg/kg oral, 4 days): 3.63 fold | Percent Bone Marrow EPCs [2, 5]: 6.7 % gated cells | Percent Bone Marrow EPCs Fold Increase Over Control ([2]; 60 mg/kg oral, 3 days): 2.0 fold | Percent Bone Marrow EPCs [2, 6]: 14.1 % gated cells | Percent Bone Marrow EPCs Fold Increase Over Control ([2]; 100 mg/kg oral, 4 days): 1.8 fold | Bone Marrow CFU-EC [3, 5]: 29.0 colonies/50,000 cells | Bone Marrow CFU-EC Fold Increase Over Control ([3]; 60 mg/kg oral, 3 days): 3.0 fold | Bone Marrow CFU-EC [3, 6]: 24.8 colonies/50,000 cells | Bone Marrow CFU-EC Fold Increase Over Control ([3]; 100 mg/kg oral, 4 days): 3.2 fold | Blood EPCs [4, 5]: 24.7 cells/μl | Percent Blood EPCs [4, 5]: 2.6 % gated cells | Blood EPCs Fold Increase Over Control ([4]; 60 mg/kg oral, 3 days): 2.4 fold | Percent Blood EPCs Fold Increase Over Control ([4]; 60 mg/kg oral, 3 days): 2.0 fold | Blood EPCs [4, 6]: 309.0 cells/μl | Percent Blood EPCs [4, 6]: 3.2 % gated cells | Blood EPCs Fold Increase Over Control ([4]; 100 mg/kg oral, 4 days): 8.4 fold | Percent Blood EPCs Fold Increase Over Control ([4]; 100 mg/kg oral, 4 days): 4.7 fold

Cc1nc(C(=O)NCC(=O)O)c(O)c2ccc(Oc3ccccc3)cc12 [Compound B, [(4-Hydroxy-1-methyl-7-phenoxy-isoquinoline-3-carbonyl)-amino]-acetic acid]
Blood CFU-EC [1, 5]: 12.4 colonies/50,000 cells | Blood CFU-EC Fold Increase Over Control ([1]; 60 mg/kg oral, 3 days): 6.2 fold | Blood CFU-EC [1, 6]: 9.3 colonies/50,000 cells | Blood CFU-EC Fold Increase Over Control ([1]; 100 mg/kg oral, 4 days): 1.9 fold | Percent Bone Marrow EPCs [2, 5]: 9.0 % gated cells | Percent Bone Marrow EPCs Fold Increase Over Control ([2]; 60 mg/kg oral, 3 days): 2.7 fold | Percent Bone Marrow EPCs [2, 6]: 16.1 % gated cells | Percent Bone Marrow EPCs Fold Increase Over Control ([2]; 100 mg/kg oral, 4 days): 2.1 fold | Bone Marrow CFU-EC [3, 5]: 22.0 colonies/50,000 cells | Bone Marrow CFU-EC Fold Increase Over Control ([3]; 60 mg/kg oral, 3 days): 2.2 fold | Bone Marrow CFU-EC [3, 6]: 22.4 colonies/50,000 cells | Bone Marrow CFU-EC Fold Increase Over Control ([3]; 100 mg/kg oral, 4 days): 2.9 fold | Blood EPCs [4, 5]: 10.4 cells/μl | Percent Blood EPCs [4, 5]: 1.0 % gated cells | Blood EPCs Fold Increase Over Control ([4]; 60 mg/kg oral, 3 days): 1.0 fold | Percent Blood EPCs Fold Increase Over Control ([4]; 60 mg/kg oral, 3 days): 0.8 fold | Blood EPCs [4, 6]: 304.0 cells/μl | Percent Blood EPCs [4, 6]: 3.0 % gated cells | Blood EPCs Fold Increase Over Control ([4]; 100 mg/kg oral, 4 days): 8.2 fold | Percent Blood EPCs Fold Increase Over Control ([4]; 100 mg/kg oral, 4 days): 4.3 fold

Cc1cccc(C)c1Oc1ccc2c(C#N)nc(C(=O)NCC(=O)O)c(O)c2c1 [Compound C, {[1-Cyano-6-(2,6-dimethyl-phenoxy)-4-hydroxy-isoquinoline-3-carbonyl]-amino}-acetic acid]
Blood CFU-EC [1, 7]: 7.7 colonies/50,000 cells | Blood CFU-EC [1, 8]: 5.6 colonies/50,000 cells | Blood CFU-EC Fold Increase Over Control ([1]; 20 mg/kg oral, 3 days): 4.3 fold | Blood CFU-EC Fold Increase Over Control ([1]; 20 mg/kg oral, 4 days): 4.3 fold | Blood CFU-EC [1, 5]: 7.4 colonies/50,000 cells | Blood CFU-EC [1, 9]: 6.6 colonies/50,000 cells | Blood CFU-EC Fold Increase Over Control ([1]; 60 mg/kg oral, 3 days): 4.14 fold | Blood CFU-EC Fold Increase Over Control ([1]; 60 mg/kg oral, 4 days): 5.1 fold | Percent Bone Marrow EPCs [2, 7]: 2.2 % gated cells | Percent Bone Marrow EPCs [2, 8]: 0.6 % gated cells | Percent Bone Marrow EPCs Fold Increase Over Control ([2]; 20 mg/kg oral, 3 days): 2.2 fold | Percent Bone Marrow EPCs Fold Increase Over Control ([2]; 20 mg/kg oral, 4 days): 0.9 fold | Percent Bone Marrow EPCs [2, 5]: 3.2 % gated cells | Percent Bone Marrow EPCs [2, 9]: 0.9 % gated cells | Percent Bone Marrow EPCs Fold Increase Over Control ([2]; 60 mg/kg oral, 3 days): 3.2 fold | Percent Bone Marrow EPCs Fold Increase Over Control ([2]; 60 mg/kg oral, 4 days): 1.4 fold | Bone Marrow CFU-EC [3, 7]: 25.7 colonies/50,000 cells | Bone Marrow CFU-EC [3, 8]: 26.0 colonies/50,000 cells | Bone Marrow CFU-EC Fold Increase Over Control ([3]; 20 mg/kg oral, 3 days): 5.1 fold | Bone Marrow CFU-EC Fold Increase Over Control ([3]; 20 mg/kg oral, 4 days): 1.9 fold | Bone Marrow CFU-EC [3, 5]: 28.0 colonies/50,000 cells | Bone Marrow CFU-EC [3, 9]: 61.0 colonies/50,000 cells | Bone Marrow CFU-EC Fold Increase Over Control ([3]; 60 mg/kg oral, 3 days): 5.6 fold | Bone Marrow CFU-EC Fold Increase Over Control ([3]; 60 mg/kg oral, 4 days): 4.5 fold | Blood EPCs [4, 7]: 151.9 cells/μl | Percent Blood EPCs [4, 7]: 1.3 % gated cells | Blood EPCs [4, 8]: 125.9 cells/μl | Percent Blood EPCs [4, 8]: 0.7 % gated cells | Blood EPCs Fold Increase Over Control ([4]; 20 mg/kg oral, 3 days): 4.2 fold | Percent Blood EPCs Fold Increase Over Control ([4]; 20 mg/kg oral, 3 days): 1.8 fold | Blood EPCs Fold Increase Over Control ([4]; 20 mg/kg oral, 4 days): 2.5 fold | Percent Blood EPCs Fold Increase Over Control ([4]; 20 mg/kg oral, 4 days): 1.0 fold | Blood EPCs [4, 5]: 195.1 cells/μl | Percent Blood EPCs [4, 5]: 1.4 % gated cells | Blood EPCs [4, 9]: 240.0 cells/μl | Percent Blood EPCs [4, 9]: 1.0 % gated cells | Blood EPCs Fold Increase Over Control ([4]; 60 mg/kg oral, 3 days): 5.4 fold | Percent Blood EPCs Fold Increase Over Control ([4]; 60 mg/kg oral, 3 days): 1.9 fold | Blood EPCs Fold Increase Over Control ([4]; 60 mg/kg oral, 4 days): 4.7 fold | Percent Blood EPCs Fold Increase Over Control ([4]; 60 mg/kg oral, 4 days): 1.3 fold
